Entries after “also recorded” stand apart in the source; their conditions may differ.

The term EC50 denotes the concentration giving half of the maximal effect.

The target in one assay is T1, DVL1 PDZ domain (Homo sapiens, UniProt O14640).
T1 sequence (O14640 251-323 limits assumed): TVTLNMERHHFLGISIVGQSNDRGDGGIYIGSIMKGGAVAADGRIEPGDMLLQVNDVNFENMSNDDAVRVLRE
Briefly: Equilibrium (FRET) competition binding between DVL1 PDZ domain and dansylated TMEM88 C-terminal peptide. As to conditions: compound at 5 µM. How it is done: Equilibrium binding experiments were performed on a Fluoromax-4 single photon counting spectrofluorometer (Jobin-Yvon, NJ, USA). The buffer used was sodium phosphate 50 mM, DMSO 20% v/v, pH 7.2, and the temperature was set at 25 °C. […] Experiments were performed in the absence and in the presence of 1 µM and 5 µM constant concentration of (S)-2 or (R)-1 enantiomers. Normalized fluorescence collected at 540 nm was fitted using a hyperbolic function.

A further assay has as its target T2, NHERF1 PDZ1 domain (Homo sapiens, UniProt O14745).
T2 sequence (O14745 14-94 limits assumed): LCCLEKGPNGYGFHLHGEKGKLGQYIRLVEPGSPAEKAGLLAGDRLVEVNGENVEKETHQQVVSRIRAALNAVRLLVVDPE
Kind of assay: Inhibition of the NHERF1 PDZ1 domain. As to conditions: data not shown. The assay is classed as binding.

Another assay has as its system SW480 cells. Briefly: Cell growth inhibition, XTT assay, SW480. In kind it is cell-based. As to conditions: Homo sapiens, incubation time 72 h. How it is done: (§1) Cell viability was evaluated by XTT [35] (SW480 and SW620 cells) or MTT [36] (HEK293 and HCT116 cells) colorimetric assays. Briefly, cells (range 10–30 × 10^3 cells/well) were seeded in 96-well microculture plates and then exposed to increasing concentrations of different compounds (range 0–300 µM) for 48 or 72 h. At the end of the treatment, media were removed and incubated at 37 °C in the dark for 4 h in phosphate-buffered saline (PBS) containing 0.2 mg/mL of sodium 3′-[1-[(phenylamino)-carbonyl]-3,4-tetrazolium]-bis(4-methoxy-6-nitro)benzene-sulfonic acid hydrate (XTT) (Thermo Fisher Scientific, Waltham, MA, USA) or (3-[4,5-dimethylthiazol-2-yl]-2,5 diphenyl tetrazolium bromide (MTT) (Merck, Kenilworth, NJ, USA) and phenazine methosulfate (PMS) at a final concentration of 25 µM. Absorbance at 450 nm and a reference wavelength of 650 nm was then measured using a microplate spectrophotometer (Multiskan FC Microplate Photometer, Thermo Scientific, Waltham, MA, USA). The cell growth inhibition rate was calculated utilizing the following formula: inhibition rate (%) = […], where Control OD is absorbance of negative control and Sample OD is absorbance of the test sample. The IC50 values were determined with GraphPad Prism 5 through constructed dose-response curves.
(§2) In vitro cultures of colon cancer cells often present mutations either in the APC gene or in the β-catenin gene. […] Two of these cell lines, colon cancer SW480 and SW620 cells, were used in dose-response experiments. […] We thus tested their growth inhibitory activity on the colon cancer cell line HCT116. In terms of APC and β-catenin, these represent the wt counterparts of SW480 and […]. HCT116 cells express wt APC and are heterozygous for β-catenin, harboring one wild type and one mutant (Ser45del) allele. WNT pathway activity and the survival of HCT116 cells thus depend on DVL and can be affected by FZD and DVL inhibitors. […]
(Tetrazolium assays rely on reduction of a dye to a coloured formazan, in cell work by metabolically active cells.)

Another assay relates to SW620 cells. Kind of assay: Cell growth inhibition, XTT assay, SW620. The assay is classed as cell-based. As to conditions: Homo sapiens, SW-620; incubation time 72 h. Here is the method: as §1, §2
Assay [1] has as its system HCT116 cells. Briefly: Cell growth inhibition, MTT assay, HCT116. In kind it is cell-based. As to conditions: Homo sapiens, HCT-116; incubation time 48 h; cells express wild-type APC. How it is done:
as §1, §2

Assay [2] deals with HCT116 cells. Briefly: ROS quantification with DCFDA probe in HCT116 cells. The assay is classed as cell-based, human. As to conditions: 48 h treatment, increasing concentrations; % of DMSO control. Here is the method:
HCT116 cells were grown in RPMI-1640 medium (Corning) containing 2 mM L-glutamine and supplemented with 100 IU/mL penicillin/streptomycin and 10% fetal bovine serum (FBS; Sigma-Aldrich, St Louis, MO, USA). HCT116 cells were treated in 96-well-black plates for 48 h with increased concentrations of […]. Quantification of ROS production was measured using 20 μM of the fluorescent probe 2′,7′-dichlorodihydrofluorescein diacetate DCFDA (Sigma Aldrich). The relative fluorescence emission was followed at 520 nm using VICTOR plate reader (VICTOR™ Multilabel Counter, Perkin Elmer) and was normalized to total protein content using BCA test. Total ROS production was presented as percentage with respect to the control (DMSO treated cells) that was set as 100%. Statistical analysis was performed using one-way ANOVA followed by the Bonferroni post hoc comparison test. p < 0.05 was considered significant. Data are representative of three independent experiments with similar results.
Reactive oxygen species (ROS) play important roles in cell growth and differentiation, metabolism and apoptosis. […] We measured the ability of compounds (S)-1 and (R)-1 to generate ROS in HCT116 cells using the fluorescent probe 2′,7′-dichlorodihydrofluorescein diacetate DCFDA. The ROS production (%) upon 48 h treatment was determined with increasing concentrations of (S)-1 or (R)-1. […]

Another assay concerns WNT/β-catenin pathway. Briefly: Inhibition of TCF/LEF (WRE-GFP reporter) activity in HEK293 cells expressing HA-FZD4. The assay is classed as cell-based. As to conditions: Homo sapiens, HEK293, 48 h, 48 h treatment, read-out: EC50 ± SD WNT Pathway Inhibition. Here is the method:
Briefly, Hek293 cells were seeded on black 96-well Optiplates (PerkinElmer, Waltham, MA, USA) at a density of 5 × 10^3/well. After seeding for 16–24 h, cells were co-transfected with the cDNA coding for HA-FZD4 (0.04 µg/well) as well as with the reporter construct WRE-GFP (0.04 µg/well) using Lipofectamine. Hek293 cells were plated and treated with different dilutions of compounds 2, (S)-2 or (R)-1 for 48 h before being fixed and analyzed under a fluorescence microscope. Inhibition of WRE activity was measured by counting the percentage of GFP positive cells. Experiments were performed in triplicate and the standard deviations are indicated.
The activity of the compounds was further assayed in HEK293 cells transiently expressing both HA-FZD4 and the WNT reporter construct WRE-GFP (25). The latter presents the coding sequence of GFP under the control of an optimized WNT responsive element (WRE-wt). When WRE-GFP is transiently transfected in cells, it promotes GFP transcription and translation. The amount of GFP produced by each cell (and thus overall cell-fluorescence) depends on the intracellular levels of WNT pathway activity (Figure 5).

Consider `Cc1cc(C)cc(S(=O)(=O)c2c(C(=O)N[C@@H](C)C(=O)NCc3ccncc3)[nH]c3ccc(Cl)cc23)c1` [(S)-1, (S)-5-Chloro-3-((3,5-dimethylphenyl)sulfonyl)-N-(1-oxo-1-((pyridin-4-ylmethyl)amino)propan-2-yl)-1H-indole-2-carboxamide], for which the “Effect on binding between DVL1 PDZ and TMEM88 peptide” value on DVL1 PDZ domain is on record as “abolished the binding”. Moreover, on NHERF1 PDZ1 domain, the “Inhibition of NHERF1 PDZ1 domain” value is “did not show inhibitory activity; also recorded: did not bind”. Also, the values for the half-maximal effective concentration (EC50) in the assay on SW480 cells, with SW620 cells and with HCT116 cells [1] were 55 ± 2.2 µM, 45.9 ± 2 µM and 7.1 ± 0.6 µM, respectively. Besides, the ROS production entry with HCT116 cells [2] was “high level of ROS production; also recorded: superior to (R)-1 at any tested compound concentration; also recorded: higher level of ROS production”.
Take `Cc1cc(C)cc(S(=O)(=O)c2c(C(=O)NC(C)C(=O)NCc3ccncc3)[nH]c3ccc(Cl)cc23)c1` (stereo not shown) [Compound 1]: the concentration giving a half-maximal response (EC50) in the assay on WNT/β-catenin pathway came out at 3.46 ± 0.07 µM; in the assay with SW480 cells it was 39.2 ± 1.58 µM; with SW620 cells it was 38.5 ± 1.6 µM; with HCT116 cells [1], 15.2 ± 1.1 µM.
In the case of `Cc1cc(C)cc(S(=O)(=O)c2c(C(=O)N[C@H](C)C(=O)NCc3ccncc3)[nH]c3ccc(Cl)cc23)c1` [(R)-1], the EC50 with WNT/β-catenin pathway came out at 19.49 ± 0.06 µM; in the assay with SW480 cells it was 59.5 ± 2.1 µM; with SW620 cells, 54.8 ± 1.9 µM; in the assay on HCT116 cells [1], 28.3 ± 1.2 µM. At DVL1 PDZ domain, the “Effect on binding between DVL1 PDZ and TMEM88 peptide” value is on record as “abolished the binding”. Besides, the “Inhibition of NHERF1 PDZ1 domain” value at NHERF1 PDZ1 domain is reported as “did not show inhibitory activity; also recorded: did not bind”.

Source of the values: article PMC8909805, “Anticancer Activity of (S)-5-Chloro-3-((3,5-dimethylphenyl)sulfonyl)-N-(1-oxo-1-((pyridin-4-ylmethyl)amino)propan-2-yl)-1H-indole-2-carboxamide (RS4690), a New Dishevelled 1 Inhibitor” (Cancers, 2022).
